US4937236A, “Anxiolytic N-substituted benzamides” (priority 1987, dated 1990)
Structures can show the parent of a compound that is named as a salt.

What was measured:
[1] = biological target: T1, 5HT3 receptors located in vagal afferent fibres (Rattus norvegicus, UniProt P35563); test: Inhibition of the Bezold-Jarisch reflex in the anaesthetized rat; format: in vivo; details: iv, read-out: BEZOLD-JARISCH REFLEX IN THE RAT (ID50; μg/kg i.v.)
T1 construct: 5HT3 receptors located in vagal afferent fibres; from tissue; host or cells: vagal afferent fibres of the anaesthetized rat (in vivo)
T1 sequence (P35563 24-483): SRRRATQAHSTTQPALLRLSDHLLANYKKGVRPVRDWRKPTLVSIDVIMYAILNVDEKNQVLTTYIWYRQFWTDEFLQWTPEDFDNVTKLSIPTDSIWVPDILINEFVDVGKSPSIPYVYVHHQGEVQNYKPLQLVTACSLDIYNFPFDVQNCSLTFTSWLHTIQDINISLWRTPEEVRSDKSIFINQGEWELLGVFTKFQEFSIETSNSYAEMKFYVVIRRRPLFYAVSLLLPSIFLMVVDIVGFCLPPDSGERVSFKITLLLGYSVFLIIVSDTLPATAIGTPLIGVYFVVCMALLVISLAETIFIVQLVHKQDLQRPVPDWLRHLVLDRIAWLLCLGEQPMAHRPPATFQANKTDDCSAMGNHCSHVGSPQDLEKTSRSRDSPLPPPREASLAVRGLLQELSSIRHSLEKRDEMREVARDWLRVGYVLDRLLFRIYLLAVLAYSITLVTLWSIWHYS
Excerpt: (1) Stimulation by 5-HT of 5HT3 receptors located in vagal afferent fibres produces a fall in heart rate and blood pressure in the anaesthetized rat (Bezold-Jarisch reflex).

[2] = tested on: Cis-platinum induced emesis; test: Cis-platinum induced emesis in the dog; format: in vivo
Excerpt: (Gylys, J. A., Dora, K. M. & Buyniski J. P. Res. Comm. Chem. Pathol. Pharmacol. (1979)23: 61-68).

CuSO4-induced emesis = CuSO4-induced emesis in the dog; format: in vivo; details: for C4 SO4 - INDUCED VOMITING No EMETIC EPISODES IN THE DOG (% Inh.): 1 mg/kg i.v.
Excerpt: (Kayashima, N., Tanaka, M., Iwasaki, M. & Hayama, T. Japan J. Pharmacol. (1978)28: 775-781).

gastric emptying = test: Stomach emptying (gastric emptying of glass beads) in the rat; format: in vivo; set-up: unit not given here
Excerpt: (5) Stomach emptying in the rat, administering compounds by oral route. (Jacoby, H. I., and Brodie, D. A. Gastroenterol. 52, 676-684, 1967).
All of them show a good prokinetic activity in the gastric emptying of glass beads in the rat.

[3] = tested on: Apomorphine-induced emesis; test: Apomorphine-induced emesis in the dog; details: for APOMORPHINE-INDUCED VOMITING IN THE DOG % Protected animals: 1 mg/kg i.v.

Row | Compound | ED50 [1] | CISPLATIN-INDUCED VOMITING IN THE DOG (% inhibition) ([2]; 0.03 mg/kg i.v.) | CISPLATIN-INDUCED VOMITING IN THE DOG (% inhibition) ([2]; 0.1 mg/kg p.o.) | C4 SO4 - INDUCED VOMITING No EMETIC EPISODES IN THE DOG (% Inh.) (CuSO4-induced emesis) | GASTRIC EMPTYING IN THE RAT [drawing 8] (gastric emptying; 0.01 mg/kg p.o.) | GASTRIC EMPTYING IN THE RAT [drawing 8] (gastric emptying; 1.0 mg/kg p.o.) | APOMORPHINE-INDUCED VOMITING IN THE DOG % Protected animals [3] | activity in CuSO4-induced vomiting in the dog (in words) (CuSO4-induced emesis) | antiemetic activity in apomorphine-induced vomiting in the dog (in words) [3] | CISPLATIN-INDUCED VOMITING IN THE DOG (% inhibition) ([2]; 1 mg/kg i.v.) | CISPLATIN-INDUCED VOMITING IN THE DOG (% inhibition) ([2]; 3 mg/kg p.o.)
1 | COCCOc1cc(N)c(Cl)cc1C(=O)NC1CN2CCC1CC2 (stereo not shown) [Compound 11, N-(1-azabicyclo[2.2.2]oct-3-yl)-2-methoxyethoxy-4-amino-5-chlorobenzamide] | 0.42 µg/kg | 81% | 0% | 24% | 60 | 68 | 0% | – | – | – | –
2 | COc1cc(N)c(Cl)cc1C(=O)NC1CN2CCC1CC2 (stereo not shown) [Zacopride, N-(1-azabicyclo[2.2.2]oct-3-yl)-2-methoxy-4-amino-5-chlorobenzamide, reference compound] | 0.21 µg/kg | 92% | 88% | 0% | 51 | 77 | 0% | totally inactive | lack antiemetic activity | – | –
3 | CN1[C@@H]2CC[C@H]1C[C@H](NC(=O)c1cc(Cl)c(N)cc1OCC1CC1)C2 [Compound 16, N(8-methyl-8-azabicyclo[3.2.1]oct3β-yl)2-cyclopropylmethoxy-4-amino-5-chlorobenzamide] | 2.6 µg/kg | 53% | 61% | 45% | 32 | 71 | 0% | – | – | – | –
4 | COCCOc1cc(N)c(Cl)cc1C(=O)N[C@@H]1C[C@H]2CC[C@@H](C1)N2C [Compound 23, N-(8-methyl-8-azabicyclo[3.2.1]oct-3β-yl)-2-(2-methoxyethoxy)-4-amino-5-chlorobenzamide acid fumarate] | 0.63 µg/kg | 31% | 53% | 30% | 13 | 61 | 0% | – | – | – | –
5 | Nc1cc(OCC2CC2)c(C(=O)NC2CN3CCC2CC3)cc1Cl (stereo not shown) [Compound 1, N-(1-azabicyclo[2.2.2]oct-3-yl)-2-cyclopropylmethoxy-4-amino-5-chlorobenzamide] | 0.56 µg/kg | 88% | 85% | 40% | 55 | 85 | 0% | – | – | – | –
6 | CCN(CC)CCNC(=O)c1cc(Cl)c(N)cc1OC [Metoclopramide, N-[2-(diethylamino)ethyl]-2-methoxy-4-amino-5-chlorobenzamide, reference compound] | 330 µg/kg | – | – | 60% | 0 | 42 | 100% | decreases the number of emetic episodes | very active | 69% | 85%
